Results on 3 compounds are retold here after US8334298B2, “Treatment or prevention of ovarian hyperstimulation syndrome (OHSS) using a dopamine agonist” (Ferring International Center S.A., priority 2005, dated 2012).

Molecules are shown by their SMILES.

For data set [1] the following is noted: oncolytic models; cited from earlier work.
The test system of the next data set is OHSS rats. Description: Vascular permeability (Evans Blue) in OHSS rats treated with bromocriptine (Example 1). Type of data set: in vivo, Wistar rats. The note with it: VP 48 h after hCG. The procedure:
Drug Treatment. Immature female Wistar rats were employed. In the OHSS group (n=8), Pregnant Mare's Serum Gonadotropin (PMSG) was administered at 10 IU/day for 4 days, followed by hCG (30 IU) on the fifth day. In the mild (i.e., ovarian stimulation) group (n=8), 10 IU of PMSG was administered followed 2 days later by administration of 10 IU of hCG. In the control group, 1 IU of PMSG was administered followed by 1 IU of hCG 48 hrs later. Vascular Permeability Measurement. Vascular permeability was measured 48 hours following hCG administration. 0.2 ml of 5 mM Evans Blue stain was injected via the femoral vein. After 30 minutes, the peritoneal cavity was irrigated with saline. Light absorption was measured in the recovered fluid at 595 nm and the vascular permeability was expressed as μg Evans blue/100 g body weight. In a second series of experiments, varying doses of bromocriptine were administered in a group of rats induced to develop OHSS with 40 IU of PMSG followed by 30 IU of hCG. 1.6, 4.0, 10.0 and 25.0 mg/kg of bromocriptine were intraperitoneally administered on the day of hCG administration and 24 hours later. VP was measured 48 hours following hCG administration.

Data set [2] has as its system patients with treatment-resistant OHSS. As to conditions: oral docarpamine, 27 patients; cited from earlier work.

For `Cc1cc(C)c(/C=C2\C(=O)Nc3ccccc32)[nH]1` [SU5416], in data set [1], the toxic effects result is given as “serious toxic effects”.

In the case of `CC(C)C[C@H]1C(=O)N2CCC[C@H]2[C@]2(O)O[C@](NC(=O)[C@@H]3C=C4c5cccc6[nH]c(Br)c(c56)C[C@H]4N(C)C3)(C(C)C)C(=O)N12` [bromocriptine], the vascular permeability with OHSS rats (1.6 mg bromocriptine i.p. on day of hCG and 24 h later, p=0.04) was 15.3±3.3 μg Evans Blue/100 g body weight; in the data set on OHSS rats (4 mg bromocriptine i.p. on day of hCG and 24 h later, p=0.04), 14.2±2.2 μg Evans Blue/100 g body weight; in the data set on OHSS rats (10 mg bromocriptine i.p. on day of hCG and 24 h later, p=0.009) it was 10.1±2.6 μg Evans Blue/100 g body weight; in the data set with OHSS rats (25 mg bromocriptine i.p. on day of hCG and 24 h later, p=0.001) it was 8.0±1.9 μg Evans Blue/100 g body weight.

As for `CCOC(=O)Oc1ccc(CCNC(=O)[C@H](CCSC)NC(C)=O)cc1OC(=O)OCC` [docarpamine], in data set [2], the ascites entry is “ascites was decreased” and the diuresis entry is recorded as “Diuresis was increased in some women”.
